Earlier results, collected in patent publication US12281304B2, “Compositions and methods for treating and preventing muscular disorders and dystrophies, steroid side effects, and inflammation” (Children's National Medical Center, priority 2018, dated 2025).

Key:
[1] = molecular target: T1, glucocorticoid receptor (GR) (Homo sapiens, UniProt P04150); conditions: cited from earlier work
T1 sequence (P04150 1-777): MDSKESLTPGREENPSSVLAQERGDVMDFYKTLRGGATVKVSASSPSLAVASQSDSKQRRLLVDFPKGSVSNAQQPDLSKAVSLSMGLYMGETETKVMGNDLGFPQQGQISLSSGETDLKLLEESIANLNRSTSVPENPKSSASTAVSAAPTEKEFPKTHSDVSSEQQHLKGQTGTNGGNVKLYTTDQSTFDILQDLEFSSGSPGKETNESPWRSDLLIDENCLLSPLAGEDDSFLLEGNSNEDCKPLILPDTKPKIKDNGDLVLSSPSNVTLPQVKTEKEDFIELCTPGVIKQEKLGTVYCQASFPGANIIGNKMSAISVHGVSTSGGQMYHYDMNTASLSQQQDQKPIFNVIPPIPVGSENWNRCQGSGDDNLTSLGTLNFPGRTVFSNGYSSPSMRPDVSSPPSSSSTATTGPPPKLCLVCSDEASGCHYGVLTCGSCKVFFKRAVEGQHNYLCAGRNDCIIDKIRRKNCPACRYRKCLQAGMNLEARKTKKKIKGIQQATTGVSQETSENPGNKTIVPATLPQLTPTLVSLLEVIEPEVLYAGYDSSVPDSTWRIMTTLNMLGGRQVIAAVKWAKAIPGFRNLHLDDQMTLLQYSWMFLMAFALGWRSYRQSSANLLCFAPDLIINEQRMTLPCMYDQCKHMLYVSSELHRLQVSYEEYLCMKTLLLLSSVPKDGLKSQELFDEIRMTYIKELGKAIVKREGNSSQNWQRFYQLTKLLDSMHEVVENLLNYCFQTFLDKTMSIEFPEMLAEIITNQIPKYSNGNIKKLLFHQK

[2] = preclinical mdx mouse and human Phase I trials; cited from earlier work

For `C[C@@H]1C[C@H]2[C@@H]3CCC4=CC(=O)C=C[C@]4(C)C3=CC[C@]2(C)[C@@]1(O)C(=O)CO` [vamorolone], the “binding to the GR” value [1] is listed as “high affinity” and the “steroidal side effects in comparison to prednisone” value [2] is listed as “avoids or has substantially reduced steroidal side effects in comparison to prednisone”.
